Biological target: T1, TRIM33(PHD, Bromo.) (Homo sapiens, UniProt Q9UPN9)
T1 construct: TRIM33(PHD, Bromo.)
T1 sequence (Q9UPN9 1-1127): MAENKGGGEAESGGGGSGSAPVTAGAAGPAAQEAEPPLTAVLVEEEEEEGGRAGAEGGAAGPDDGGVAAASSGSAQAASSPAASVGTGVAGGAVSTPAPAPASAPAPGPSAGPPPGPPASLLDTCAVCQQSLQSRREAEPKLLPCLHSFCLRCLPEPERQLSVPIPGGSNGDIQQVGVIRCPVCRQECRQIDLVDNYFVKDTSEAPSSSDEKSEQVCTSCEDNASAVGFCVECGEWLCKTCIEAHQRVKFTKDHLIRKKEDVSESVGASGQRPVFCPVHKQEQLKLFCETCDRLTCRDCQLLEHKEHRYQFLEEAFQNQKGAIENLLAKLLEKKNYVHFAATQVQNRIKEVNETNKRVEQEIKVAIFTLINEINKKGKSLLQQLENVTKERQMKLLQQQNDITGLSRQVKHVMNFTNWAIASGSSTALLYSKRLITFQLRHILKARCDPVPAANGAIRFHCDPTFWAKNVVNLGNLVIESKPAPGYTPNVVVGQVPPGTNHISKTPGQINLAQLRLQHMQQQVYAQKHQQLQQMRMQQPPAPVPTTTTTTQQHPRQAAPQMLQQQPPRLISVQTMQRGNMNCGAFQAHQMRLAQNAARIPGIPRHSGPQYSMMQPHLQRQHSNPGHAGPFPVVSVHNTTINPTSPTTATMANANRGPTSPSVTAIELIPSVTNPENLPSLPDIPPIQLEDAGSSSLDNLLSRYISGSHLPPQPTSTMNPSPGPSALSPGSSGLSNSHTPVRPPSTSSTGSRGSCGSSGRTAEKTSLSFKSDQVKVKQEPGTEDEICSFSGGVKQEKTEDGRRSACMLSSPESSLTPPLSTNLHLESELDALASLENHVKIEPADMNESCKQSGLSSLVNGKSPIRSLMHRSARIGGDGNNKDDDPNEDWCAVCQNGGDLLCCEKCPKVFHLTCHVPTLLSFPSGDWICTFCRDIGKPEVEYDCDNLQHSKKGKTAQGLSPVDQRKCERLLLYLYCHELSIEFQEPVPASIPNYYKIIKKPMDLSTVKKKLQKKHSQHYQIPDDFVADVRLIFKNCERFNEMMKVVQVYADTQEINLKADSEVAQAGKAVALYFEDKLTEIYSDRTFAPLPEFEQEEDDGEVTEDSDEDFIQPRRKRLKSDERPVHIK
Assay: BromoKdMAX (BROMOscan) TRIM33(PHD, Bromo.)
Type: binding
Conditions: TRIM33(PHD, Bromo.) (Entrez TRIM33)
Method: A BromoKdMAX was performed at DiscoverX.
BROMOscan™ is a novel industry leading platform for identifying small molecule bromodomain inhibitors. Based on proven KINOMEscan™ technology, BROMOscan™ employs a proprietary ligand binding site-directed competition assay to quantitatively measure interactions between test compounds and bromodomains. This robust and reliable assay panel is suitable for high throughput screening and delivers quantitative ligand binding data to facilitate the identification and optimization of potent and selective small molecule bromodomain inhibitors.
For the Bromodomain assays, T7 phage strains displaying bromodomains were grown in parallel in 24-well blocks in an E. coli host derived from the BL21 strain. E. coli were grown to log-phase and infected with T7 phage from a frozen stock (multiplicity of infection=0.4) and incubated with shaking at 32° C. until lysis (90-150 minutes). The lysates were centrifuged (5,000×g) and filtered (0.2 μm) to remove cell debris. […] The liganded beads were blocked with excess biotin and washed with blocking buffer (SeaBlock (Pierce), 1% BSA, 0.05% Tween 20, 1 mM DTT) to remove unbound ligand and to reduce non-specific phage binding. […] Kds were determined using an 11-point 3-fold compound dilution series with one DMSO control point. […] The bromodomain concentration in the eluates was measured by qPCR.

For `COc1cncc(-c2cc(Nc3cccc(F)c3)nc([C@@H]3CC[C@H](C)N(C(C)=O)C3)n2)c1` [Compound 00212, (−)-1-((2S,5R)-5-(4-((3-fluorophenyl)amino)-6-(5-methoxypyridin-3-yl)pyrimidin-2-yl)-2-methylpiperidin-1-yl)ethan-1-one], the Kd was over 10 µM.

Reference: patent US20230067929A1, “HETEROCYCLIC DERIVATIVES, PHARMACEUTICAL COMPOSITIONS AND THEIR USE IN THE TREATMENT, AMELIORATION OR PREVENTION OF CANCER” (Tolremo Therapeutics AG, priority 2018, published 2023)
